The values below are quoted from earlier work in paper PMC11331742 (Military Medical Research, 2024).

Data set [1] has as its system preclinical models. The text has this:
(§1) In addition, studies involving MC2r-independent agonists such as PT-141 could provide insight into cortisol-independent anti-inflammatory mechanisms.

Data set [2] concerns MC2r. Set-up: method as in PMID 25140322.
Data set [3] deals with mouse model of acute lung injury.
From the text: as §1

In the case of `CCCC(=O)C1(c2ccccc2)CCN(C(=O)[C@@H](Cc2ccc(OC)cc2)NC(=O)[C@@H](N)Cc2cncn2C)CC1` [BMS-470539], in data set [1], the anti-inflammatory effects entry is reported as “promising anti-inflammatory effects”.

Consider “α-melanocyte-stimulating hormone [α-MSH]”, for which the “affinity for MC2r” value in data set [2] is “minimal affinity”. In addition, the effect on inflammation entry in data set [3] was “reduced inflammation”.
